{"source": "paper PMC7031697", "about": "“Mechanism of Activation of AMPK by Cordycepin” (Cell Chemical Biology, 2020)", "key": {"[1]": {"biological_target": "T1, AMPK complexes containing WT γ2 (Homo sapiens, UniProt Q9UGJ0)", "T1 construct": "expressed in transfected cells; host or cells: HepG2 (transient, Fugene 6)", "assay": "AMPK activity in anti-FLAG immunoprecipitates, HepG2 cells with FLAG-tagged WT AMPK-γ2", "format": "cell-based", "details": "1 h, 300 μM cordycepin, 10 mM phenformin or 300 μM A-769662", "description": "(§1) HepG2 cells ([…]) were cultured in Minimum Essential Medium (MEM) supplemented with 10% (v/v) FBS, 1% (v/v) non-essential amino acids and 1% (v/v) penicillin/streptomycin. Transient transfection of DNAs encoding FLAG-tagged AMPK-γ2 or an R531G mutant of AMPK-γ2 were carried out 36-48 hr prior to experiments using Fugene 6 according to manufacturers’ instructions. U2OS cells ([…]) were cultured in Dulbecco’s Modified Eagle’s Medium (DMEM) supplemented with 10% (v/v) FBS and 1% (v/v) penicillin/streptomycin.\n(§2) HepG2 cells were transiently transfected with DNAs encoding FLAG-tagged wild type AMPK-γ2 or the R531G mutant, using Fugene 6 according to the manufacturers’ instructions. After transfection for 48 hr, cells were treated with various agents as described, and cell lysates prepared ([Hawley et al., 2018]). FLAG-tagged AMPK was then immunoprecipitated from 150 μg total protein by incubation at 4°C for 2 hr on a roller mixer with 9 μl of EZview Red anti-FLAG M2 affinity gel. After extensive washing, the immunoprecipitates were assayed for AMPK activity (50 μg per assay in a total volume of 50 μl) using the AMARA peptide (200 μM) as substrate in the presence of 200 μM AMP, 5 mM MgCl2 and 200 μM γ-^32P-ATP as described previously ([Fyffe et al., 2018])."}, "[2]": {"biological_target": "T2, AMPK complexes containing the R531G mutant (Homo sapiens, UniProt Q9UGJ0, R531G)", "T2 construct": "expressed in transfected cells; host or cells: HepG2 (transient, Fugene 6)", "T2 sequence (Q9UGJ0 whole entry R531G, one chain of several)": "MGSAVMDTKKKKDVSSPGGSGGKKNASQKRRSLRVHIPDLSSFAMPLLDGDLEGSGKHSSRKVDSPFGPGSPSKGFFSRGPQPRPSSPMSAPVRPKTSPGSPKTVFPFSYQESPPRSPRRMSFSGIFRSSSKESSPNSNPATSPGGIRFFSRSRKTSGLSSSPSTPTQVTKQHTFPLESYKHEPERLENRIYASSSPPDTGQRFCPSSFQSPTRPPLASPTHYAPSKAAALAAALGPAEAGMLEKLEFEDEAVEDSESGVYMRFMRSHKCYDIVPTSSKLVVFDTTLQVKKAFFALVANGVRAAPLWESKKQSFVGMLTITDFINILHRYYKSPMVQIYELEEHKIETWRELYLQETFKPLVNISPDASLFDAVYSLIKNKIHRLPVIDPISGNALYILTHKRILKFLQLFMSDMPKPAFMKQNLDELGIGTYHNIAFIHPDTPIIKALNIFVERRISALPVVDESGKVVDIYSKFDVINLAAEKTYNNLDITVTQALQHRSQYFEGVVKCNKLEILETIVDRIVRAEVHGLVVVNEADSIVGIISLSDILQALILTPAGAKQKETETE", "assay": "AMPK activity in anti-FLAG immunoprecipitates, HepG2 cells with FLAG-tagged AMPK-γ2 R531G mutant", "format": "cell-based", "details": "1 h, 300 μM cordycepin, 10 mM phenformin or 300 μM A-769662", "description": "as §1, §2"}, "AMPK": {"system": "AMPK", "assay": "Effect of adenosine kinase and transport inhibitors on AMPK activation in HepG2 cells", "format": "cell-based, human", "details": "1 μM ABT-702 or 0.5 μM dipyridamole; for effect of cordycepin to activate and phosphorylate AMPK: 300 μM cordycepin 1 h; for effects of AICA riboside on AMPK: 3 mM AICAR 1 h", "description": "Endogenous AMPK in crude cell lysates was first immunoprecipitated using an equal mixture of anti-α1 and –α2 antibodies (150 μg protein) by incubation at 4°C for 2 hr on a roller mixer. After extensive washing, the immunoprecipitates were assayed for AMPK activity (50 μg per assay, total assay volume 50 μl) using the AMARA peptide (200 μM) as substrate in the presence of 200 μM AMP, 5 mM MgCl2 and 200 μM [γ-^32P]ATP ([Fyffe et al., 2018])."}, "human α2β2γ1 complex [3]": {"biological_target": "T3, human α2β2γ1 complex (Homo sapiens, UniProt P54619+P54646)", "T3 construct": "made in house", "assay": "AMPK assay using ATP or CoTP as co-substrate (GST-ACC1 phosphorylation)", "format": "biochemical", "details": "for allosteric activation: 30 μM AMP; for Km / estimated Vmax as phosphate donor: GST-ACC1 substrate; for Km: Mg2+ at constant 4.8 mM excess, read-out: Km as phosphate donor; for estimated Vmax as phosphate donor: Michaelis-Menten fit; for effect on allosteric activation by AMP: at high concentrations (5 mM)", "description": "As ^32P-labelled CoTP was not available, the experiments in Figures 3C and 3D were performed using non-radioactive CoTP and utilized as co-substrate a construct of glutathione-S-transferase fused at the N-terminus of residues 60-94 of rat ACC1 ([Scott et al., 2002]), which includes the Ser79 phosphorylation site. Bacterially expressed GST-ACC (0.5 μg) was incubated for 10 min in a total volume of 25 μl with bacterially expressed human AMPK (30 ng of α2β2γ1 complex, previously phosphorylated on Thr172 using CaMKK2) with ATP or CoTP as indicated, and sufficient MgCl2 to maintain a constant 4.8 mM excess of [Mg^2+] over [ATP]. Phosphorylation of this substrate was detected using anti-pACC antibody and quantified using a LiCor Odyssey imager."}, "[4]": {"system": "AMPK purified from rat liver", "assay": "Allosteric activation of purified rat liver AMPK (SAMS peptide, cell-free)", "format": "biochemical", "description": "AMPK (15 ng) purified from rat liver was assayed in solution using the SAMS peptide as substrate ([Fyffe et al., 2018]) in the presence of AMP or CoMP (concentrations specified in Figure legends), and either 5 mM MgCl2 and 200 μM [γ-^32P]ATP or 9.8 mM MgCl2 and 5 mM [γ-^32P]ATP, thus maintaining a constant excess of [Mg^2+] over [ATP] ([Storer and Cornish-Bowden, 1976]). Total assay volume was 25 μl."}, "rat liver AMPK": {"system": "rat liver AMPK", "assay": "Cell-free inhibition of Thr172 dephosphorylation by PP2Cα", "format": "biochemical", "details": "fit of AMPK activity as a function of CoMP concentration; read-out: EC50 of protection against inactivation and Thr172 dephosphorylation by PP2Cα", "description": "These were as described previously ([Fyffe et al., 2018]) with some modifications. Rat liver AMPK (12.5 μg/ml) was incubated in a shaking incubator at 30°C for 10 min in Hepes buffer (50 mM Na Hepes pH 7.4, 150 mM NaCl, 1 mM dithiothreitol, 0.02% (w/v) Brij-35) with MgCl2 and sufficient PP2Cα to yield about 70% inactivation in the absence of added nucleotide. Aliquots were removed for Western blotting and AMPK assay. Kinase assays were performed immediately after a further 100-fold dilution, which was sufficient to prevent dephosphorylation during the assay."}, "human α2β2γ1 complex [5]": {"biological_target": "T3, human α2β2γ1 complex", "assay": "Cell-free promotion of Thr172 phosphorylation by LKB1", "format": "biochemical", "details": "varying CoMP, 200 μM ATP", "description": "These were as described previously ([Fyffe et al., 2018]) with some modifications. Bacterially expressed human AMPK (α2β2γ1 complex, unphosphorylated on Thr172, 500 ng) was incubated for 10 min in a total volume of 25 μl with 200 μM ATP, […] with/without the LKB1:STRAD:MO25 complex (10 ng), in the presence or absence of AMP (200 μM) or cordycepin as indicated. Aliquots were removed for Western blotting and AMPK assays."}, "[6]": {"details": "200 μM ATP, for CoMP estimated with maximal activation constrained to 4.4-fold"}}, "note": "Read-outs that look alike come from different tables or passages of the source.", "data": [{"smiles": "N#Cc1c(O)c2c(-c3ccc(-c4ccccc4O)cc3)csc2[nH]c1=O", "note": "[A-769662]", "values": [{"measurement": "activation of AMPK complexes containing WT γ2", "setting": "[1]", "result": "activated"}, {"measurement": "activation of AMPK complexes containing the R531G mutant", "setting": "[2]", "result": "still activated"}]}, {"smiles": "Nc1ncnc2nc(-c3ccc(N4CCOCC4)nc3)cc(-c3cccc(Br)c3)c12", "note": "[ABT-702, 4-amino-5-(3-bromophenyl)-7-(6-morpholinopyridin-3-yl)pyrido[2,3-d]pyrimidine]", "values": [{"measurement": "effect of cordycepin to activate and phosphorylate AMPK", "setting": "AMPK", "result": "blocked"}, {"measurement": "effects of AICA riboside on AMPK", "setting": "AMPK", "result": "also blocked"}]}, {"smiles": "Nc1ncnc2c1ncn2[C@@H]1O[C@H](COP(=O)(O)O)[C@@H](O)[C@H]1O", "note": "[AMP, reference compound]", "values": [{"measurement": "allosteric activation", "setting": "human α2β2γ1 complex [3]; ATP or CoTP concentrations increased to 5 mM", "result": "abolished"}, {"measurement": "allosteric activation", "setting": "human α2β2γ1 complex [3]; kinase assayed using either 200 μM ATP or CoTP as substrate", "result": 4, "unit": "fold"}, {"measurement": "maximal allosteric activation", "setting": "[4]; 200 μM ATP", "result": "4.4 ± 0.1", "unit": "fold"}, {"measurement": "EC50", "setting": "[4]; [6]", "result": "3.8 ± 0.2", "unit": "µM"}, {"measurement": "IC50", "setting": "[4]; 200 μM ATP, read-out: IC50 (concentration giving half-maximal inhibition)", "result": "1600 ± 100", "unit": "µM"}]}, {"smiles": "Nc1ncnc2c1ncn2[C@@H]1O[C@H](COP(=O)(O)OP(=O)(O)OP(=O)(O)O)[C@@H](O)[C@H]1O", "note": "[ATP]", "values": [{"measurement": "Km", "setting": "human α2β2γ1 complex [3]", "result": "36 ± 3", "unit": "µM"}, {"measurement": "estimated Vmax as phosphate donor", "setting": "human α2β2γ1 complex [3]", "result": 1.02}, {"measurement": "effect on allosteric activation by AMP", "setting": "human α2β2γ1 complex [3]", "result": "antagonize"}]}, {"smiles": "Nc1ncnc2c1ncn2[C@@H]1O[C@H](COP(=O)(O)O)C[C@H]1O", "note": "[CoMP, cordycepin 5′-monophosphate]", "values": [{"measurement": "EC50", "setting": "rat liver AMPK", "result": "68 ± 12", "unit": "µM"}, {"measurement": "potency as an allosteric activator, less potent than AMP", "setting": "[4]; 200 μM ATP", "result": "≈ 30 fold"}, {"measurement": "IC50", "setting": "[4]; 200 μM ATP, estimated, maximal activation constrained to 4.4-fold, read-out: IC50 of inactivation", "result": "500 ± 180", "unit": "µM"}, {"measurement": "EC50", "setting": "[4]; [6]", "result": "120 ± 50", "unit": "µM"}, {"measurement": "EC50", "setting": "[4]; 5 mM ATP, maximal activation constrained to 4.4-fold", "result": 1400, "unit": "µM"}, {"measurement": "activation and Thr172 phosphorylation of AMPK by LKB1", "setting": "human α2β2γ1 complex [5]", "result": "promoted"}]}, {"smiles": "Nc1ncnc2c1ncn2[C@@H]1O[C@H](COP(=O)(O)OP(=O)(O)OP(=O)(O)O)C[C@H]1O", "note": "[CoTP, cordycepin triphosphate]", "values": [{"measurement": "Km", "setting": "human α2β2γ1 complex [3]", "result": "22 ± 3", "unit": "µM"}, {"measurement": "estimated Vmax as phosphate donor", "setting": "human α2β2γ1 complex [3]", "result": 0.92}, {"measurement": "effect on allosteric activation by AMP", "setting": "human α2β2γ1 complex [3]", "result": "antagonize"}]}, {"smiles": "OCCN(CCO)c1nc(N2CCCCC2)c2nc(N(CCO)CCO)nc(N3CCCCC3)c2n1", "note": "[dipyridamole]", "values": [{"measurement": "effect of cordycepin to activate and phosphorylate AMPK", "setting": "AMPK", "result": "blocked"}, {"measurement": "effects of AICA riboside on AMPK", "setting": "AMPK", "result": "also blocked"}]}, {"smiles": "[H]/N=C(/N)N/C(=N/[H])NCCc1ccccc1", "note": "[phenformin]", "values": [{"measurement": "activation of AMPK complexes containing WT γ2", "setting": "[1]", "result": "activated"}, {"measurement": "activation of AMPK complexes containing the R531G mutant", "setting": "[2]", "result": "not activated"}]}]}
